{"source": "patent US8778886B2", "about": "“Methods of making and using a cell penetrating peptide for enhanced delivery of nucleic acids, proteins, drugs, and adenovirus to tissues and cells, and compositions and kits” (Tufts University, priority 2007, dated 2014)", "key": {"[1]": {"test_system": "Human embryonic retinal (HER) 911 cells", "test": "L-POD uptake by HER cells (microscopy, lissamine-positive cells by FACS)", "type": "cell-based", "method": "(§1) HER cells were seeded on Lab Tek-II chamber slides and grown to about 70% confluence. Cells were washed twice with PBS and incubated with […] L-POD for 0, 5, 15, 30, 45, and 60 minutes or 1 nmol Lissamine only for 60 minutes. Cells were fixed for 15 minutes in formalin at room temperature. Cells for live imaging were grown on 24 well plates and incubated with […] of L-POD. Following incubation, cells were washed three times with PBS, incubated in phenol red-free DMEM supplemented with 2% FBS. Cells were visualized by light and fluorescent microscopy using either an Olympus IX51 (live cells) or an Olympus BX51 (fixed cells) with DIC, RFP, and GFP filters. Images were obtained using a Retiga 2000R FAST camera and QCapture Pro 5.0 (QImaging, BC, Canada). To measure L-POD uptake in the presence of trypsin, 0.2×10^6 HER cells were incubated with 2.0 nmole L-POD in media for 15 minutes at 37° C. followed by incubation in 2.5 mg/ml trypsin for 12 minutes at 37° C. For analysis of uptake at 4° C., cells were cooled to 4° C. for 45 minutes prior to the addition of peptide and cold (4° C.) reagents were used for peptide administration. Following incubation with peptide, cells were washed twice with PBS and spun and resuspended in PBS for FACS analysis. For measurement of membrane permeabilization, HER cells were incubated with 2.0 nmole FITC-HBP for 30 minutes at 37° C., washed twice, isolated, and suspended in PBS with 1 μM PI. The number of PI-positive cells was analyzed by FACS. FACS analysis was performed using a FACSCalibur (Becton Dickinson). Examples were performed in triplicate and 10,000 events per sample were counted. Results were analyzed using CellQuest Pro software (Becton Dickinson).\nHuman embryonic retinal (HER) 911 cells [Fallaux F J et al. 1996 Hum. Gene Ther. 7: 215-222] incubated with […] (8 μM) lissamine-conjugated POD (L-POD), followed by formalin fixation, became […] to 558 nm excitation (emission measured at 583 nm) within 1 min and appeared normal in bright field (FIG. 1 panel A). Within 5 min, L-POD was seen within the cytoplasm with both a diffuse cytoplasmic and slightly punctate pattern (Figure panel A).\nTo determine whether L-POD was internalized or was non-specifically associated with the plasma membrane, HER cells incubated with 2 nmoles (8 μM) L-POD for 15 min were treated with trypsin at 37° C. prior to counting of lissamine-positive cells by FACS. […] Sensitivity of POD peptide to trypsin-mediated digestion was confirmed by incubation of […] of C-POD with trypsin prior to loading on an acrylamide gel (inset FIG. 1 panel C). Whereas 92.23±0.65% of HER cells were lissamine-positive when incubated with L-POD at 37° C., only 48.74±2.32% of cells were lissamine-positive when incubated with L-POD at 4° C. (FIG. 1 panel D)."}, "[2]": {"test_system": "cornea, sclera, optic nerve", "test": "Topical application of L-POD to whole mouse eye in vivo", "set-up": "species or system C57BL6/6J mice", "conditions": "for staining of external ocular tissues: topical, 10 nmol, 45 min", "method": "(§2) The use of animals in this work was in accordance with the ARVO Statement for the Use of Animals in Ophthalmic and Vision Research. C57BL/6J mice were purchased from Jackson Laboratories, bred and maintained in a 12-hour light-dark cycle and cared for in accordance with federal, state and local regulations. For each Example herein at least 4 mice (8 eyes) were investigated, yielding roughly similar results. Mice were anesthetized by […] injection of xylazine (10 mg/ml)/ketamine (1 mg/ml). Subretinal or intravitreal injections were performed with a 32 G needle attached to a 5 μl glass syringe (Hamilton) by a trans scleral trans choroidal approach to deliver 0.25 nmole of L-POD per eye. For topical delivery to cornea, male C57BL6/6J mice at 6 weeks of age were anesthetized by intraperitoneal injection of ketamine/xylazine and 10 nmoles of either L-POD or lissamine only were dropped on the cornea and incubated for 45 minutes or 24 hours. Upon completion of the treatment, the animal was sacrificed by CO2 inhalation followed by cervical dislocation and the eyes harvested and washed three times in PBS. Fluorescent and bright field images were taken of each eye using a Nikon C-FMC microscope prior to fixation. Eyes were fixed overnight at 4° C. in 4% paraformaldehyde and embedded in Optimal Cutting Temperature Compound and 14 μm sections were collected using a Microm 550 cryostat.\nTo assess penetration of the cornea and sclera with L-POD, whole mouse eye was incubated in vivo with 10 nmol L-POD for 45 min followed by harvesting of ocular tissues."}, "HER cells [3]": {"test_system": "HER cells", "test": "Membrane permeabilization, propidium iodide uptake after F-POD", "type": "cell-based, human", "conditions": "FACS, F-POD 0.2 to 2.0 μM (average), Triton-X100 1%", "method": "as §1, with “Following incubation with peptide, cells were washed twice with PBS and spun and resuspended in PBS for FACS analysis. For measurement of membrane permeabilization, HER cells were incubated with 2.0 nmole FITC-HBP for 30 minutes at 37° C., washed twice, isolated, and suspended in PBS with 1 μM PI.” left out, “FACS analysis was performed using a FACSCalibur (Becton Dickinson).” left out, “Dickinson). […]” for “Dickinson).”"}, "neural retina": {"test_system": "neural retina", "test": "Subretinal / intravitreal delivery of L-POD and QDPOD to retina in vivo", "set-up": "species or system C57BL/6J mice", "conditions": "2 hours", "method": "as §2, with “cryostat. […]” for “cryostat.”"}, "HER cells [4]": {"test_system": "HER cells", "test": "Inhibition of L-POD uptake by proteoglycans", "type": "cell-based, human", "method": "(§3) Lissamine conjugated POD (L-POD) and either heparan sulfate or chondroitan sulfate were incubated together at each of molar ratios of 1:3.33, 1:6.67, and 1:8 in water for 30 minutes at room temperature. The complex was diluted in DMEM+2% FBS and added to 0.2×]06 HER cells for 5 minutes at 37° C. Following incubation, cells were trypsinized and suspended in PBS for FACS analysis as described above. To measure microbicidal activity of C-POD, XL-1 Blue cells (Stratagene, La Jolla, Calif.) were grown to mid logarithmic phase (OD600=0.600) and washed twice in a solution of 10 mM Tris, pH 7.4 and 5 mM Glucose. The cells were resuspended in 10 mL of the same solution and […] of the suspension was incubated with C-POD in a final volume of 50 μL. The peptide/bacteria cell solution was rocked for 2 hours at 37° C. The peptide-treated bacteria was diluted 1:4500 with LB broth, plated on agar, and grown overnight at 37° C. The following day, the bacterial colonies on each plate were counted to quantify peptide-related reduction in growth.\nTo determine whether L-POD uses cell surface proteoglycans for binding and cell entry, L-POD was pre incubated with different amounts of either of the proteoglycans chondroitin sulfate or heparan sulfate, prior to addition to HER cells. Based on data from preliminary studies, ratios of L-POD:proteoglycan of 1:3.33, 1:6.67 and 1:8 were selected.\nIn contrast, the uptake of a TRITC-conjugated peptide containing an integrin-binding RGD motif was not affected by pre-incubation with either proteoglycan (FIG. 3 panel A)."}, "E. coli": {"test_system": "E. coli", "test": "Microbicidal activity, colony count after plating", "type": "cell-based", "conditions": "2 hours at 37° C., plating on LB agar", "method": "as §3\nSince endophthalmitis, an infection within the eye, is regularly a complicating factor in drug delivery to ocular tissues [Ho J et al. 2007 Int Opthalmol Clin 47: 199-208], C-POD was examined for potential microbicidal activities. E. coli cells grown to mid-log phase were incubated with either H20 only or C-POD suspended in H20 at concentrations ranging from 0.03 μM to 60 μM, and cell number was determined by plating samples on LB agar. […] Greater concentrations of C-POD completely eliminated bacterial growth."}}, "note": "Residues, ends and D or L forms follow the SMILES beside them. No end group written: not given here. *: point of attachment. FITC = O=C1OC2(c3ccc(O)cc3Oc3cc(O)ccc32)c2ccc(NC(=S)*)cc21"}
{"compound": "lissamine [reference compound]", "values": [{"measurement": "uptake by HER cells (microscopy)", "setting": "[1]; lissamine only, fixed cells", "value": "no evidence of uptake"}, {"measurement": "staining of external ocular tissues", "setting": "[2]", "value": "weakly stained the cornea and sclera and did not stain the optic nerve"}]}
{"compound": "C[C@H](NC(=O)[C@H](CCCCN)NC(=O)[C@H](C)NC(=O)[C@H](C)NC(=O)[C@H](CCCCN)NC(=O)[C@H](CCCCN)NC(=O)[C@H](CCCNC(=N)N)NC(=O)[C@H](C)NC(=O)[C@H](C)NC(=O)[C@H](CCCCN)NC(=O)[C@H](C)NC(=O)[C@H](C)NC(=O)[C@H](CCCCN)NC(=O)[C@H](CCCCN)NC(=O)[C@H](CCCNC(=N)N)NC(=O)[C@H](C)NC(=O)[C@H](C)NC(=O)[C@H](CCCCN)NC(=O)[C@H](C)NC(=O)[C@H](C)NC(=O)[C@H](CCCCN)NC(=O)[C@H](CCCCN)NC(=O)[C@H](CCCNC(=N)N)NC(=O)[C@H](C)NC(=O)[C@H](C)NC(=O)[C@H](CCCCN)NC(=O)[C@H](C)NC(=O)[C@H](C)NC(=O)[C@H](CCCCN)NC(=O)[C@H](CCCCN)NC(=O)[C@H](CCCNC(=N)N)NC(=O)[C@H](C)NC(=O)CNC(=O)CNC(=O)CNC(=S)Nc1ccc2c(c1)C(=O)OC21c2ccc(O)cc2Oc2cc(O)ccc21)C(=O)O", "note": "[F-POD] ({FITC}-GGGARKKAAKAARKKAAKAARKKAAKAARKKAAKA-OH)", "values": [{"measurement": "PI-positive cells", "setting": "HER cells [3]", "value": "3.98±0.70", "unit": "%"}]}
{"compound": "L-POD: N terminal lissamine conjugated GGG(ARKKAAKA)4 (SEQ ID NO: 1) (lissamine-GGGARKKAAKAARKKAAKAARKKAAKAARKKAAKA)", "values": [{"measurement": "transduction of neural retina", "setting": "neural retina; intravitreal", "value": "approximately 85%"}, {"measurement": "transduction of neural retina", "setting": "neural retina; subretinal", "value": "approximately 40%"}, {"measurement": "uptake of L-POD (lissamine-positive cells)", "setting": "HER cells [4]; chondroitin sulfate, 1:6.67", "value": "59.43±1.55", "unit": "%"}, {"measurement": "uptake of L-POD (lissamine-positive cells)", "setting": "HER cells [4]; chondroitin sulfate, 1:8", "value": "34.38±3.13", "unit": "%"}, {"measurement": "uptake of L-POD (lissamine-positive cells)", "setting": "HER cells [4]; chondroitin sulfate, L-POD:proteoglycan 1:3.33", "value": "71.24±1.77", "unit": "%"}, {"measurement": "uptake of L-POD (lissamine-positive cells)", "setting": "HER cells [4]; heparan sulfate, 1:3.33", "value": "78.60±0.35", "unit": "%"}, {"measurement": "uptake of L-POD (lissamine-positive cells)", "setting": "HER cells [4]; heparan sulfate, 1:6.67", "value": "57.78±2.83", "unit": "%"}, {"measurement": "uptake of L-POD (lissamine-positive cells)", "setting": "HER cells [4]; heparan sulfate, 1:8", "value": "44.37±2.17", "unit": "%"}, {"measurement": "lissamine-positive cells", "setting": "HER cells [4]; without pre incubation with any proteoglycan", "value": "90.07±0.64", "unit": "%"}, {"measurement": "lissamine-positive cells", "setting": "[1]; 2 nmoles (8 μM) L-POD 15 min, with incubation with trypsin", "value": "90.10±1.89", "unit": "%"}, {"measurement": "lissamine-positive cells", "setting": "[1]; 2 nmoles (8 μM) L-POD 15 min, without incubation with trypsin", "value": "92.23±0.65", "unit": "%"}, {"measurement": "time until L-POD was seen within the cytoplasm", "setting": "[1]; 2 nmoles (8 μM) L-POD, formalin fixation", "value": "≤ 5", "unit": "min"}, {"measurement": "uptake of L-POD in the presence of inhibitors of endocytosis", "setting": "[1]; chlorpromazine, genistein, filipin", "value": "no significant reduction"}, {"measurement": "lissamine-positive cells", "setting": "[1]; incubated with L-POD at 4° C.", "value": "48.74±2.32", "unit": "%"}, {"measurement": "lissamine-positive cells", "setting": "[1]; incubated with L-POD at 37° C.", "value": "92.23±0.65", "unit": "%"}, {"measurement": "time to reach the optic nerve", "setting": "[2]; administered topically", "value": "≤ 45", "unit": "min"}, {"measurement": "staining of external ocular tissues", "setting": "[2]", "value": "bound strongly to the cornea, sclera and unexpectedly, also the optic nerve"}]}
{"compound": "GGG(ARKKAAKA)4 [POD]", "values": [{"measurement": "concentration giving significant inhibition of bacterial growth", "setting": "E. coli", "value": 0.3, "unit": "µM"}]}
{"compound": "Triton-X100 [reference compound]", "values": [{"measurement": "PI-positive cells", "setting": "HER cells [3]", "value": "91.44±9.66", "unit": "%"}]}
